Measured values as given in patent US20090069623A1, “METHODS AND COMPOSITIONS FOR TREATMENT OR PREVENTION OF RADIATION-INDUCED FIBROSIS” (Virginia Commonwealth University Intellectual Property …, priority 2007, published 2009).

How the values were obtained:
Type in all cases: cell-based, human
CTGF, fibronectin [1] = assay: Western blot of HDF cells treated with TGF-β1 and simvastatin; conditions: 10 ng/ml TGF-β1 plus simvastatin, three days, FIG. 10B
Protocol: Cell Culture and Treatment. Normal human fetal lung fibroblasts (HFL-1) were purchased from the American Type Culture Collection (ATCC Number: CCL-153) and cultured in Ham's F12K medium (American Type Culture Collection) supplemented with 2 mM L-glutamine adjusted to contain 1.5 g/L sodium bicarbonate and 10% fetal bovine serum. Cells were maintained in humidified 5% CO2 at 37° C. Human dermal fibroblasts (HDF), derived from the dermis of normal human adult skin, were purchased from Invitrogen, Inc. and cultured in Medium-106 (Invitrogen, Inc., Catalogue No. M-106-500) containing LSGS Kit (Invitrogen, Inc., Catalogue No. S-003-K) prior to use. […]
Harvesting Culture Media and Cell Lystates. For analysis of extracellular CTGF, fibronectin, and α-tubulin, cell culture media was collected, centrifuged to remove cellular debris, aliquoted, and frozen at −70° C. until ready for use. […]
Western blot analysis of HFL-1 whole cell proteins. […] After washing the blot, the antibodies were detected by the enhanced chemiluminescence method (PerkinElmer Life Sciences Inc.).
(§1) The separated proteins were then transferred to nitrocellulose, and Western immunoblotting was performed with antibodies specific for CTGF, fibronectin, and α-tubulin. […] As a control for protein loading, α-tubulin expression in HFL-1 cells was also determined.

CTGF, fibronectin [2] = assay: Western blot of irradiated HFL-1 cells treated with HMG-CoA inhibitors; conditions: simvastatin pretreatment 6 hours, 5 Gy, three days, FIG. 8B
Protocol: For statin treatment experiments, cells were grown overnight in 35 mm plates (6-well plates were also used in some studies) to form a 75-80% confluent monolayer. The cells were then washed with PBS, and the media was changed to SFM (800 μL).
Harvesting Culture Media and Cell Lystates. For analysis of extracellular CTGF, fibronectin, and α-tubulin, cell culture media was collected, centrifuged to remove cellular debris, aliquoted, and frozen at −70° C. until ready for use. For analysis of intracellular CTGF, fibronectin, and α-tubulin, cell lysates were harvested using 200 μL of HBSST lysis buffer (HBSS containing 1 mM MgSO4, 1 mM CaCl2, 4 mM NaHCO3, 0.5% Triton X-100, protease inhibitor cocktail). Cellular debris was removed by centrifugation.
Western blot analysis of HFL-1 whole cell proteins. […] Primary antibodies for CTGF and fibronectin were diluted at 1:600 and were incubated at 4° C. overnight with shaking. Primary antibodies for α-tubulin were diluted at 1:4,000 and were incubated at 4° C. overnight with shaking. Corresponding secondary antibodies were diluted at 1:6,000 and were incubated at room temperature for 1 hour with shaking. After washing the blot, the antibodies were detected by the enhanced chemiluminescence method (PerkinElmer Life Sciences Inc.).
as §1, with “Cells were harvested, and cell lysates were separated by SDS-PAGE. The” for “The”
Cells were harvested, and cell lysates were separated by SDS-PAGE. The separated proteins were then transferred to nitrocellulose, and Western immunoblotting was performed with antibodies specific for CTGF, fibronectin, and α-tubulin. FIG. 8C is a Western blot of HFL-1 cells exposed to radiation and treated with HMG-CoA inhibitors.

[3] = system: CTGF, fibronectin (FN), collagen type IV (Col IV) mRNA; assay: RT-PCR of TGF-β1-induced mRNA expression in HDF cells treated with simvastatin; conditions: 10 ng/ml TGF-β1 for 20 hours, FIG. 10A
Protocol: Cell Culture and Treatment. Normal human fetal lung fibroblasts (HFL-1) were purchased from the American Type Culture Collection (ATCC Number: CCL-153) and cultured in Ham's F12K medium (American Type Culture Collection) supplemented with 2 mM L-glutamine adjusted to contain 1.5 g/L sodium bicarbonate and 10% fetal bovine serum. Cells were maintained in humidified 5% CO2 at 37° C. Human dermal fibroblasts (HDF), derived from the dermis of normal human adult skin, were purchased from Invitrogen, Inc. and cultured in Medium-106 (Invitrogen, Inc., Catalogue No. M-106-500) containing LSGS Kit (Invitrogen, Inc., Catalogue No. S-003-K) prior to use. After reaching 75-80% confluence, the medium was changed to serum free medium (SFM) for irradiation with different dose 1Gy, 2.5Gy, 5Gy, 7.5Gy and 10 Gy by using ^137Se. Alternatively, cells were treated with 5 ng/ml TGF-β1 (Sigma-Aldrich, Inc., Catalogue No. T7039) to stimulate CTGF production. The cells were then kept for 3 days in humidified 5% CO2 at 37° C. and subjected to Western immunoblot.^1 ^1What are the culture conditions (e.g., media) for M12 cells used in FIG. 3?
RT-PCR analysis of CTGF, COL-IV, FN and hβ2M. […]
The ability of statins to inhibit TGF-β1-mediated induction of CTGF, fibronectin, and collagen type IV was assessed in HDF cells. […]

## CCC(C)(C)C(=O)O[C@H]1C[C@@H](C)C=C2C=C[C@H](C)[C@H](CC[C@@H]3C[C@@H](O)CC(=O)O3)[C@H]21 [simvastatin, 2,2-dimethyl-butanoic acid(1S,3R,7S,8S,8aR)-1,2,3,7,8,8a-hexahydro-3,7-dimethyl-8-[2-[(2R,4R)-tetrahydro-4-hydroxy-6-oxo-2H-pyran-2-yl]ethyl]-1-naphthalenylester]
CTGF, fibronectin [1]
  fibronectin protein expression: decrease in protein expression of fibronectin
CTGF, fibronectin [2]
  fibronectin protein expression: decrease in protein expression or fibronectin
[3]; 0.1 μM simvastatin
  CTGF, FN, and Col IV mRNA expression: reduction in CTGF, FN, and Col IV mRNA expression
[3]; increasing concentration of simvastatin
  CTGF, FN, and Col IV mRNA expression: reduction in CTGF, FN, and Col IV mRNA expression became more pronounced
